According to US11906523B2, “Signaling conjugates and methods of use” (VENTANA MEDICAL SYSTEMS, INC., priority 2012, dated 2024):
Blank lines part the entries; values can stand above or below the compound they belong to.

Experiments:
[1] = UV-Vis absorbance spectra of signaling conjugates and chromophores; assay type: physicochemical
Description: The wavelength at which the maximum fraction of light is absorbed by a substance is referred to as λmax. Because this wavelength is absorbed to the greatest extent, it is typically referred to as the absorbance wavelength. […] While λmax designates the wavelength of maximum absorption, the FWHM designates the breadth of the spectral absorbance.
Trace A corresponds to the signaling conjugate used for FIG. 15(A) and trace B corresponds to the signaling conjugated used for FIG. 15(B); note that each signaling conjugate was analyzed with spectrometry in solution prior to staining and on the slide subsequent to having detected the HER2 (the dashed traces representing the spectra obtained on the tissue).

[2] = UV-Vis spectra of fast red and fast blue; assay type: physicochemical; settings: ethyl acetate solutions, FIG. 8(B)
Description: While providing a range of new colors for the recognition of targets within biological samples is useful alone, the presently disclosed signaling conjugates are particularly useful in multiplexed assays, as well as assays using translocation probes. FIG. 8(A) is a photomicrograph of a dual stain of two gene probes on section of lung tissue testing for ALK rearrangements associated with non-small cell lung cancer. FIG. 8(B) illustrates UV-Vis spectra of fast red and fast blue in ethyl acetate solutions. The 3′ probe was detected using fast red and the 5′ probe was detected using fast blue. FIGS. 9(A) and 9(B) illustrate the traces of FIG. 8(B) separately. […] Comparing this range to the color wheel, the expected color corresponding to the spectral absorption characteristic would be either red or orange. The range of absorption is so large it essentially covers all of those wavelengths one would expect to result in a red or an orange color. […] Again, referring to the color wheel in FIG. 6(A), the absorption from 525-625 nm covers nearly half of the color wheel with blue, indigo, and violet being complementary.

[3] = absorption spectrum of signaling conjugate

Compound: CN(C)c1ccc2c(-c3ccc(C(=O)NCCc4ccc(O)cc4)cc3C(=O)[O-])c3ccc(N(C)C)cc3[o+]c2c1 [5-TAMRA-tyramide conjugate]
full width of the peak at the half maximum absorbance (FWHM) [1, 3]: approximately 40 nm
λmax [1, 3]: 552 nm

λmax ([1]; diazo chromophore moiety itself): about 427 nm
Compound: O=C([O-])C1=NN(c2ccc(S(=O)(=O)[O-])cc2)C(=O)C1N=Nc1ccc(S(=O)(=O)[O-])cc1.[Na+].[Na+].[Na+] (stereo not shown) [Tartrazine]

strong absorption wavelength range [2]: 525-625 nm
Compound: Fast blue
